Data reported in PMC10382406, “Head-to-head comparison of different classes of FAP radioligands designed to increase tumor residence time: monomer, dimer, albumin binders, and small molecules vs peptides” (European Journal of Nuclear Medicine and Molecular Imaging, 2023).

Biological target: T1, hFAP (Homo sapiens, UniProt Q12884)
T1 sequence (Q12884 1-760): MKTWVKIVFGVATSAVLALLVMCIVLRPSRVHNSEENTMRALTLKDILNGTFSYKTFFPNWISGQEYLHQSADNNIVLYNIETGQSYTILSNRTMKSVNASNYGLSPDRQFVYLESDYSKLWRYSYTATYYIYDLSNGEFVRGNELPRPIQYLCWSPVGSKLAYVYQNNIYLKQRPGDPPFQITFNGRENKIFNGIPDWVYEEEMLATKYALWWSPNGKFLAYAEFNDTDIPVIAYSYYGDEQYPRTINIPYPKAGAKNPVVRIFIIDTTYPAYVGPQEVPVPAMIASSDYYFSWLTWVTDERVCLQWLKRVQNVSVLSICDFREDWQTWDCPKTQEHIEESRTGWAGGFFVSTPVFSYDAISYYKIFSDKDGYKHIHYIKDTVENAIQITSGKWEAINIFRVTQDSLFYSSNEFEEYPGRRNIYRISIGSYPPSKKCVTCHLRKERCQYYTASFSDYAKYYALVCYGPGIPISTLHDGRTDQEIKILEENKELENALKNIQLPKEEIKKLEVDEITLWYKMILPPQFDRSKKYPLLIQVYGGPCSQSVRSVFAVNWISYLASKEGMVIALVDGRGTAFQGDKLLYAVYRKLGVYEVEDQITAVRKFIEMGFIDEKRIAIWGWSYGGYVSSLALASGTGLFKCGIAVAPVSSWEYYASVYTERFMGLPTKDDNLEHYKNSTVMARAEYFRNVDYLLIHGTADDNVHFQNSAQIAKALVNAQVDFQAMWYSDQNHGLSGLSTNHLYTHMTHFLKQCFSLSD
Assay: In vitro inhibition assay on hFAP (substrate Z-Gly-Pro-AMC)
Format: biochemical
Settings: isolated hFAP 200 pM, Z-Gly-Pro-AMC 20 μM, room temperature
Method: The IC50 of all the ligands against isolated hFAP protein was assessed by an inhibition assay following published protocols (Supplementary Information and Supplementary Fig. 3).
In vitro inhibition assay on hFAP
The enzymatic activity of hFAP on the substrate Z-Gly-Pro-AMC was measured at room temperature on a microtiter plate reader, monitoring the fluorescence at an excitation wavelength of 360 nm and an emission wavelength of 465 nm. The assay was performed by mixing the substrate (20 μM), hFAP (200 pM, constant), and the ligands in assay buffer (50 mM Tris, 1 M NaCl, 1 mg/mL BSA, pH=7.5), with serial dilution of the inhibitors ranging from 250 nM to 2 fM, 1:2 in a total volume of 20 μL.
Experiments were performed in triplicate, and the mean fluorescence values were fitted using GraphPad Prism 9 (equation used: Y = Bottom + (Top − Bottom)/(1 +
((X^HillSlope)/(IC50^HillSlope)))). The IC50 value is defined as the concentration of ligand (inhibitor) required to reduce the enzyme activity by 50% after the addition of the substrate.
The results are presented in the Supplemental Figure 3.
(1 picture or pasted object on this page, not shown here)

SMILES	IC50 [nM]
CN(CCCN1CCN(C(=O)CN2CCN(CC(=O)O)CCN(CC(=O)O)CCN(CC(=O)O)CC2)CC1)c1ccc2nccc(C(=O)NCC(=O)N3CC(F)(F)C[C@H]3C#N)c2c1 [FAPI-46, reference compound]	0.247 ± 0.017
Cc1cc(-c2ccc(NC(=O)CC(NC(=O)CN3CCN(CC(=O)O)CCN(CC(=O)O)CCN(CC(=O)O)CC3)C(=O)N3CCN(CCCN(C)c4ccc5nccc(C(=O)NCC(=O)N6CC(F)(F)CC6C#N)c5c4)CC3)c(C)c2)ccc1N=Nc1ccc2c(S(=O)(=O)O)cc(S(=O)(=O)O)c(N)c2c1O (stereo not shown) [FAPI-46-EB]	0.634 ± 0.102
CN(CCCN1CCN(C(=O)CC(NC(=O)CN2CCN(CC(=O)O)CCN(CC(=O)O)CCN(CC(=O)O)CC2)C(=O)N2CCN(CCCN(C)c3ccc4nccc(C(=O)NCC(=O)N5CC(F)(F)C[C@H]5C#N)c4c3)CC2)CC1)c1ccc2nccc(C(=O)NCC(=O)N3CC(F)(F)C[C@H]3C#N)c2c1 (stereo partly shown) [FAPI-46-F1D]	0.158 ± 0.0145
CC(C)Cc1ccc(C(C)C(=O)NCC(NC(=O)CN2CCN(CC(=O)O)CCN(CC(=O)O)CCN(CC(=O)O)CC2)C(=O)N2CCN(CCCN(C)c3ccc4nccc(C(=O)NCC(=O)N5CC(F)(F)C[C@H]5C#N)c4c3)CC2)cc1 (stereo partly shown) [FAPI-46-Ibu]	0.0394 ± 0.0161
